pIC50: −log10 of the molar value.
Columns and labels:
HIV-1 RT = molecular target: T1, HIV-1 RT (Human immunodeficiency virus type 1 group M subtype B, UniProt P04585); experiment: Inhibitory activity against HIV-1 RT (biotin-dUTP incorporation, colorimetric); format: biochemical; settings: for pIC50: mean of three separate experiments, variation less than 15%
T1 construct: The biotin-dUTP was incorporated by reverse transcriptase (Sigma, St. Louis, MO, USA); purchased Sigma
Protocol: Oligo(dT) (TaKaRa Co., Otsu, Japan) was immobilized via its 5'-terminal phosphate to Covalink-NH microtiter plates (NUNC Co., Roskilde, Denmark). The biotin-dUTP was incorporated by reverse transcriptase (Sigma, St. Louis, MO, USA). Briefly, a serial concentration of inhibitor was added to the mixture, which contained 50 mmol/L Tris-HCl (pH 8.3), 3 mmol/L MgCl2, 75 mmol/L KCl, 5 mmol/L DTT, 0.13 mg/mL BSA, 10 μg/mL poly (A), 0.75 μM biotin-11-Dutp, 1.5 μM dTTP and HIV-1 RT. After incubation at 37 °C for 1h, washing buffer, which contained 50 mmol/L Tris-HCl (pH 7.5), 0.15 mol/L NaCl, 0.05 mmol/L MgCl2 and 0.02% Tween20, was used to wash the plate. Then each well of the plate was added […] 1% BSA and incubated at room temperature for another 30 min. The plate was washed with the same buffer for 3 times. Before further incubation at 37 °C for 1 h, 50 μL of alkaline phosphatase streptavidin (SA-ALP) solution (100 ng/mL) was added to each well and washed again as above. Finally, 50 μL of p-nitrophenyl phosphate, disodium (PNPP, 1 mg/mL, pH 9.5) was added and incubated at 37 °C for 30 min. 0.5 mol/L NaOH was added to stop the reaction and a colorimetric streptavidin-alkaline phosphatase reporter system was used to detect and quantify the result.

Compound	melting point [°C]	pIC50 (HIV-1 RT)	fold more active compared to nevirapine (HIV-1 RT IC50) (HIV-1 RT)
O=c1cc(Cc2ccccc2)nc(SCc2ccc([N+](=O)[O-])cc2)[nH]1 [7a, 2-(4-Nitrobenzylthio)-6-benzyluracil]	192 to 194	< 4.00	–
Cc1cc(C)cc(Cc2cc(=O)[nH]c(SCc3ccc([N+](=O)[O-])cc3)n2)c1 [7b, 2-(4-Nitrobenzylthio)-6-(3,5-dimethylbenzyl)uracil]	218 to 220	5.48	–
O=c1cc(Cc2cc(F)cc(F)c2)nc(SCc2ccc([N+](=O)[O-])cc2)[nH]1 [7c, 2-(4-Nitrobenzylthio)-6-(3,5-difluorobenzyl)uracil]	–	< 4.00	–
N#Cc1ccc(CSc2nc(Cc3ccccc3)cc(=O)[nH]2)cc1 [7d, 2-(4-Cyanobenzylthio)-6-benzyluracil]	190 to 193	< 4.00	–
Cc1cc(C)cc(Cc2cc(=O)[nH]c(SCc3ccc(C#N)cc3)n2)c1 [7e, 2-(4-Cyanobenzylthio)-6-(3,5-dimethylbenzyl)uracil]	193 to 196	4.53	–
N#Cc1ccc(CSc2nc(Cc3cc(F)cc(F)c3)cc(=O)[nH]2)cc1 [7f, 2-(4-Cyanobenzylthio)-6-(3,5-difluorobenzyl)uracil]	205 to 208	4.80	–
CC(=O)c1ccc(CSc2nc(Cc3ccccc3)cc(=O)[nH]2)cc1 [7g, 2-(4-Acetylbenzylthio)-6-benzyluracil]	204 to 205	4.26	–
CC(=O)c1ccc(CSc2nc(Cc3cc(C)cc(C)c3)cc(=O)[nH]2)cc1 [7h, 2-(4-Acetylbenzylthio)-6-(3,5-dimethylbenzyl)uracil]	195 to 197	4.77	–
CC(=O)c1ccc(CSc2nc(Cc3cc(F)cc(F)c3)cc(=O)[nH]2)cc1 [7i, 2-(4-Acetylbenzylthio)-6-(3,5-difluorobenzyl)uracil]	251 to 254	4.47	–
COC(=O)c1ccc(CSc2nc(Cc3ccccc3)cc(=O)[nH]2)cc1 [7j, 2-(4-Methoxycarbonylbenzylthio)-6-benzyluracil]	214 to 217	< 4.00	–
COC(=O)c1ccc(CSc2nc(Cc3cc(C)cc(C)c3)cc(=O)[nH]2)cc1 [7k, 2-(4-Methoxycarbonylbenzylthio)-6-(3,5-dimethylbenzyl)uracil]	221 to 224	5.12	–
COC(=O)c1ccc(CSc2nc(Cc3cc(F)cc(F)c3)cc(=O)[nH]2)cc1 [7l, 2-(4-Methoxycarbonylbenzylthio)-6-(3,5-difluorobenzyl)uracil]	279 to 280	< 4.00	–
O=c1cc(Cc2ccccc2)nc(SCCc2ccc([N+](=O)[O-])cc2)[nH]1 [7m, 2-(4-Nitrophenethylthio)-6-benzyluracil]	200 to 204	4.17	–
O=c1cc(Cc2cc(F)cc(F)c2)nc(SCCc2ccc([N+](=O)[O-])cc2)[nH]1 [7o, 2-(4-Nitrophenethylthio)-6-(3,5-difluorobenzyl)uracil]	220 to 222	4.74	–
O=c1cc(Cc2ccccc2)nc(SCCOc2ccc([N+](=O)[O-])cc2)[nH]1 [7p, 2-(2-(4-Nitrophenoxy)ethylthio)-6-benzyluracil]	212 to 213	5.34	–
O=c1cc(Cc2cc(F)cc(F)c2)nc(SCCOc2ccc([N+](=O)[O-])cc2)[nH]1 [7r, 2-(2-(4-Nitrophenoxy)ethylthio)-6-(3,5-difluorobenzyl)uracil]	210 to 212	5.88	–
O=c1cc(Cc2ccccc2)nc(SCCCOc2ccccc2)[nH]1 [7s, 2-(Phenoxypropylthio)-6-benzyluracil]	89 to 91	4.78	–
Cc1cc(C)cc(Cc2cc(=O)[nH]c(SCCCOc3ccccc3)n2)c1 [7t, 2-(Phenoxypropylthio)-6-(3,5-dimethylbenzyl)uracil]	100 to 102	5.58	–
O=c1cc(Cc2cc(F)cc(F)c2)nc(SCCCOc2ccccc2)[nH]1 [7u, 2-(Phenoxypropylthio)-6-(3,5-difluorobenzyl)uracil]	100 to 101	4.84	–
O=c1cc(Cc2ccccc2)nc(SCOCc2ccccc2)[nH]1 [7v, 2-(Benzyloxymethylthio)-6-benzyluracil]	118 to 120	4.89	–
Cc1cc(C)cc(Cc2cc(=O)[nH]c(SCOCc3ccccc3)n2)c1 [7w, 2-(Benzyloxymethylthio)-6-(3,5-dimethylbenzyl)uracil]	134 to 136	5.74	–

Compound	melting point [°C]	pIC50 (HIV-1 RT)	fold more active compared to nevirapine (HIV-1 RT IC50) (HIV-1 RT)
O=c1[nH]c(SCc2ccc([N+](=O)[O-])cc2)nc(Cc2ccccc2)c1I [8a, 2-(4-Nitrobenzylthio)-5-iodine-6-benzyluracil]	207 to 210	5.04	–
Cc1cc(C)cc(Cc2nc(SCc3ccc([N+](=O)[O-])cc3)[nH]c(=O)c2I)c1 [8b, 2-(4-Nitrobenzylthio)-5-iodine-6-(3,5-dimethylbenzyl)uracil]	224 to 228	5.78	–
O=c1[nH]c(SCc2ccc([N+](=O)[O-])cc2)nc(Cc2cc(F)cc(F)c2)c1I [8c, 2-(4-Nitrobenzylthio)-5-iodine-6-(3,5-difluorobenzyl)uracil]	203 to 206	5.26	–
N#Cc1ccc(CSc2nc(Cc3ccccc3)c(I)c(=O)[nH]2)cc1 [8d, 2-(4-Cyanobenzylthio)-5-iodine-6-benzyluracil]	223 to 226	4.97	–
Cc1cc(C)cc(Cc2nc(SCc3ccc(C#N)cc3)[nH]c(=O)c2I)c1 [8e, 2-(4-Cyanobenzylthio)-5-iodine-6-(3,5-dimethylbenzyl)uracil]	224 to 227	5.39	–
N#Cc1ccc(CSc2nc(Cc3cc(F)cc(F)c3)c(I)c(=O)[nH]2)cc1 [8f, 2-(4-Cyanobenzylthio)-5-iodine-6-(3,5-difluorobenzyl)uracil]	216 to 219	5.35	–
CC(=O)c1ccc(CSc2nc(Cc3ccccc3)c(I)c(=O)[nH]2)cc1 [8g, 2-(4-Acetylbenzylthio)-5-iodine-6-benzyluracil]	219 to 220	4.86	–
CC(=O)c1ccc(CSc2nc(Cc3cc(F)cc(F)c3)c(I)c(=O)[nH]2)cc1 [8i, 2-(4-Acetylbenzylthio)-5-iodine-6-(3,5-difluorobenzyl)uracil]	205 to 206	5.39	–
COC(=O)c1ccc(CSc2nc(Cc3ccccc3)c(I)c(=O)[nH]2)cc1 [8j, 2-(4-Methoxycarbonylbenzylthio)-5-iodine-6-benzyluracil]	214 to 216	5.44	–
COC(=O)c1ccc(CSc2nc(Cc3cc(C)cc(C)c3)c(I)c(=O)[nH]2)cc1 [8k, 2-(4-Methoxycarbonylbenzylthio)-5-iodine-6-(3,5-dimethylbenzyl)uracil]	208 to 211	5.95	–
COC(=O)c1ccc(CSc2nc(Cc3cc(F)cc(F)c3)c(I)c(=O)[nH]2)cc1 [8l, 2-(4-Methoxycarbonylbenzylthio)-5-iodine-6-(3,5-difluorobenzyl)uracil]	210 to 213	6.15	about 10 fold
O=c1[nH]c(SCCc2ccc([N+](=O)[O-])cc2)nc(Cc2ccccc2)c1I [8m, 2-(4-Nitrophenethylthio)-5-iodine-6-benzyluracil]	209 to 212	5.06	–
O=c1[nH]c(SCCc2ccc([N+](=O)[O-])cc2)nc(Cc2cc(F)cc(F)c2)c1I [8o, 2-(4-Nitrophenethylthio)-5-iodine-6-(3,5-difluorobenzyl)uracil]	220 to 221	5.16	–
O=c1[nH]c(SCCOc2ccc([N+](=O)[O-])cc2)nc(Cc2ccccc2)c1I [8p]	204 to 205	5.20	–
O=c1[nH]c(SCCCOc2ccccc2)nc(Cc2ccccc2)c1I [8s, 2-(Phenoxypropylthio)-5-iodine-6-benzyluracil]	135 to 137	5.23	–
Cc1cc(C)cc(Cc2nc(SCCCOc3ccccc3)[nH]c(=O)c2I)c1 [8t, 2-(Phenoxypropylthio)-5-iodine-6-(3,5-dimethylbenzyl)uracil]	165 to 167	4.89	–
O=c1[nH]c(SCCCOc2ccccc2)nc(Cc2cc(F)cc(F)c2)c1I [8u, 2-(Phenoxypropylthio)-5-iodine-6-(3,5-difluorobenzyl)uracil]	156 to 158	4.74	–
O=c1[nH]c(SCOCc2ccccc2)nc(Cc2ccccc2)c1I [8v, 2-(Benzyloxymethylthio)-5-iodine-6-benzyluracil]	133 to 135	4.99	–
Cc1cc(C)cc(Cc2nc(SCOCc3ccccc3)[nH]c(=O)c2I)c1 [8w, 2-(Benzyloxymethylthio)-5-iodine-6-(3,5-dimethylbenzyl)uracil]	200 to 202	5.06	–
CC(C)c1c(Cc2ccccc2)n(COCc2ccccc2)c(=O)[nH]c1=O [TNK-651, reference compound]	–	6.85	–

Reference: article PMC6271041, “Synthesis and Biological Evaluation of Novel 2-Arylalkylthio-5-iodine-6-substituted-benzyl-pyrimidine-4(3H)-ones as Potent HIV-1 Non-Nucleoside Reverse Transcriptase Inhibitors” (Molecules, 2014)
